Assays:
[1] = tested on: polyglucosan body (PB) in APBD patient-derived fibroblasts; assay: High content (image-based) PAS screening assay for polyglucosan bodies; type: cell-based, human; settings: 0, 1, 5, 10 and 50 μM
Experimental: All the steps of the assay were performed automatically using a Freedom Evo 150 liquid handling robot (Tecan). APBD patient-derived fibroblasts were seeded at a density of 800 cells/well in DMEM (Gibco) supplemented with 1 mM sodium pyruvate (Gibco), 1% antibiotics (Biological Industries, Israel) and 5% fetal bovine serum (Hyclone) into 384 well microclear plates (Greiner). The plates were transferred by the robotic arm (RoMa) into an automated incubator (Liconic), integrated with the robotic system, where they were incubated at 37° C. with 5% CO2. Following 24 h incubation, the medium was replaced by the robot using medium supplemented with 10 μM of each screened compound (0.1% DMSO final concentration, all prepared by the robot). The screened compounds were part of the Diverset CL collection purchased from ChemBridge (10,084 out of 50,000 molecules).
Next, these cells were cultured for another 24 h in the automated incubator, and, using the robot, washed them with PBS (Biological Industries, Israel), the cells were fixed with 4% paraformaldehyde (PFA), washed again with PBS, neutralized the previously added PFA by ammonium chloride (Sigma Aldrich), washed with PBS, permeabilized with 0.1% Triton X-100 (Sigma Aldrich), and washed again with PBS.
Following this, a robot was used to treat the fixed cells with 0.5 g/dl diastase (or amylase, Sigma Aldrich) for 5 minutes at 37° C. in the automated incubator, wash with PBS, stained with PAS (Merck), Hoechst 33342 (Sigma Aldrich) and Cell Mask Deep Red (Molecular Probes) and wash with PBS. Images of stained cells were then acquired by the IN Cell Analyzer 2000 (GE Healthcare) and analyzed using the IN Cell Investigator (GE Healthcare) applying an algorithm that quantified the PAS signal within each Cell Mask stained cell.
Images were segmented based on the Cell Mask signal which was linked with the segmentation of the nuclei, employing an empirically established sensitivity and kernel size for allowing the best segmentation. Once these nucleus-cytoplasm complex objects were selected, the software calculated the number of these objects (cell number) as well as the intensity of the PAS signal within each of them. All the assay parameters (including the acquisition exposure times, objective, and the analysis parameters) were kept constant throughout the whole screening campaign for allowing comparison of signals obtained from different batches of assay within the campaign.
The assay was performed as mentioned above, but with compound concentrations of 1, 5, 10, and 50 μM, instead of a constant concentration of 10 μM.
The discarded data was presumably associated with cells affected by toxic compounds. In the remaining data, the measured population mean PB intensity was normalized. Based on a series of images used for training, compounds were considered as positive only where following treatment the normalized PB mean intensity was at least under −1.2 z-score of the scale. Following this approach, 85 potential hits out of the 10,084 screened compounds were selected (0.84%).

recombinant human GS1 = biological target: T1, recombinant human GS1 (Homo sapiens, UniProt P13807); assay: In vitro GS activity assay; type: biochemical; settings: 50 μM; unpaired t-tests, p<0.05
T1 sequence (P13807 1-737): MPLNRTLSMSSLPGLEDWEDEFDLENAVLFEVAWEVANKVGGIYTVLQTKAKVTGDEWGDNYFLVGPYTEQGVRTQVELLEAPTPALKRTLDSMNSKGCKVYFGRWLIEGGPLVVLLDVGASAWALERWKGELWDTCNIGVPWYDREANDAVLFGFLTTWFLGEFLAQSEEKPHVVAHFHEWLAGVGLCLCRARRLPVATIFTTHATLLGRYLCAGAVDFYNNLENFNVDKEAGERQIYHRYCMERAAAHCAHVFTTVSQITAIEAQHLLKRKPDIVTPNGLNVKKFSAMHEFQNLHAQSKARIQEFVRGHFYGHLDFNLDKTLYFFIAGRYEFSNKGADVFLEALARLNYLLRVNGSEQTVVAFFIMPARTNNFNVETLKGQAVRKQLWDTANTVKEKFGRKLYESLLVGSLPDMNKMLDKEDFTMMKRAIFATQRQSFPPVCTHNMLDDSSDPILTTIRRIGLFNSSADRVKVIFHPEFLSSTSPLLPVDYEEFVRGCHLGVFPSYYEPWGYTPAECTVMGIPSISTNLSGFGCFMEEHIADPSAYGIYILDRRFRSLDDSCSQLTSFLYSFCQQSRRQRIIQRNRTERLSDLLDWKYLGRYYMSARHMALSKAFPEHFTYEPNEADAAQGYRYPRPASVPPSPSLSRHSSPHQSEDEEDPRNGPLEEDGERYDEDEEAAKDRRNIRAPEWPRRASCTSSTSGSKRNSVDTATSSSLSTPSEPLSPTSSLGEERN
Experimental: The reaction was carried out in 96-well plates containing 50 μl of reaction volume (50 mM Tris, pH8, 20 mM EDTA, 25 mM KF, 2 mg/ml glycogen, 10 mM Glucose-6-Phosphate, 1.65 mM UDP[14C]glucose and 100 mM UDP-glucose). To test the inhibitory effect of the hits, each one was included in the reaction at a final concentration of 50 μM. The reaction was initiated with the addition of 20 nM recombinant human GS1, followed by incubation at 37° C. for 30 min. The reaction was then stopped with the addition of 100 μl cold 100% ethanol, and the total suspension was transferred into a 96-well filter plate. Vacuum was applied to remove the ethanol. Five washing steps with 150 μl of cold 66% ethanol then fully removed any non-incorporated UDP[14C]glucose, while the labelled glycogen stayed on the well filters. The plate was dried at 37° C. incubator for 30 min. 50 μl of scintillation fluid was added to each well and the plate was read for 14C signal on Microplate scintillation and luminescence counter Top Count (Perkin Elmer).

[2] = tested on: APBD modeling mice (Gbe^Y329S/Y329S mouse model); assay: Motor parameters in APBD modeling mice; type: in vivo
Experimental: This study was conducted in compounds A and B according to the schemes described in Tables 8 and 9, respectively.
As vehicle control, 0.1% DMSO was used. It is noteworthy that, in order to have a statistically significant number of animals, compound A was tested in male mice and compound B in female mice (no mixed cages were allowed).
APBD is an autosomal disease with no gender related symptoms and it was presumed that this experimental design is optimal. The mode of delivery of the compounds was intravenous (IV) injection for the first month, followed by subcutaneous injection due to lack of injection space and scaring in animal tails.
Tables 8 and 9 describe the study design for compounds A and B. both compounds were tested at the age of 4 months, two months prior to disease onset, in order to assess possible prophylactic effects, and at the age of 6 months, at disease onset, in order to assess corrective effects.
The effect of compounds A and B on various motor parameters was tested every two weeks. The results are shown in herein.
The point of reference is one time point prior to treatment initiation. Please note, since animals first treated with the compounds at 6 months of age were not injected at all before that age, they could not have been compared to animals pre-injected with vehicle. Therefore, the duration of the longitudinal studies for the cohorts first treated at the age of 6 months is shorter than that of the animals first treated at 4 months of age.

[3] = treated from 4 months of age (2 months before onset), two way ANOVA with repeated measures
[4] = treated from 4 months of age, Bonferroni's multiple comparisons test
[5] = treated from 6 months of age (at onset), two way ANOVA with repeated measures
[6] = treated from 6 months of age, Bonferroni's multiple comparisons test

Structure (SMILES): COCc1c(C(=O)N2[C@@H]3CC[C@H]2CN(C)C(=O)C3)noc1C (relative stereo) [UDP #19, (1S*,6R*)-9-{[4-(methoxymethyl)-5-methylisoxazol-3-yl]carbonyl}-3-methyl-3,9-diazabicyclo[4.2.1]nonan-4-one]
- dose response of diastase resistant cell associated mean PAS intensity normalized by z-score [1]: concentration dependent
- effect on GS activity (direction of change) (recombinant human GS1): increasing
- apathy, mobility and responsiveness to experimenter ([2]; 250 mg/kg, IV first month then subcutaneous): less apathic, more mobile and more responsive to intervention by the experimenter
- ameliorating effect on motor parameters (summary) ([2]; 250 mg/kg, IV first month then subcutaneous, tested every two weeks): ameliorate grip strength
- average duration in movement in an open field test vs vehicle [2, 3]: not different from vehicle (p<0.1)
- average front paw grip strength vs vehicle [2, 3]: different from vehicle with p<0.055
- average gait length vs vehicle [2, 3]: not different from vehicle (p<0.1)
- average gait width vs vehicle [2, 3]: not different from vehicle (p<0.1)
- average latency to fall off a metal wire vs vehicle [2, 3]: not different from vehicle (p<0.1)
- average latency to fall off a rotating cylinder (rotarod) vs vehicle [2, 3]: the latency to fall was shorter in treated animals (p<0.089)
- average regularity of step distance (Coefficient of Variance of all R-R and L-L step distances) vs vehicle [2, 3]: not different from vehicle (p<0.1)
- average uniformity of step alternation (|0.5-(R-L/R-R)|) vs vehicle [2, 3]: not different from vehicle (p<0.1)
- extension reflex vs vehicle [2, 3]: not different from vehicle (p<0.1)
- average duration in movement in an open field test vs vehicle [2, 4]: no significant difference
- average front paw grip strength vs vehicle [2, 4]: no significant difference
- average gait length vs vehicle [2, 4]: no significant difference
- average gait width vs vehicle [2, 4]: no significant difference
- average latency to fall off a metal wire vs vehicle [2, 4]: no significant difference
- average latency to fall off a rotating cylinder (rotarod) vs vehicle [2, 4]: 57 days after treatment initiation latency to fall was lower in treated mice as compared to vehicle control (p<0.05)
- average regularity of step distance vs vehicle [2, 4]: no significant difference
- average uniformity of step alternation vs vehicle [2, 4]: no significant difference
- extension reflex vs vehicle [2, 4]: no significant difference
- average duration in movement in an open field test vs vehicle [2, 5]: not different from vehicle (p<0.1)
- average front paw grip strength vs vehicle [2, 5]: different from vehicle with p<0.1
- average gait length vs vehicle [2, 5]: not different from vehicle (p<0.1)
- average gait width vs vehicle [2, 5]: not different from vehicle (p<0.1)
- average latency to fall off a metal wire vs vehicle [2, 5]: not different from vehicle (p<0.1)
- average latency to fall off a rotating cylinder (rotarod) vs vehicle [2, 5]: the latency to fall was shorter in treated animals (p<0.089)
- average regularity of step distance vs vehicle [2, 5]: not different from vehicle (p<0.1)
- average uniformity of step alternation (|0.5-(R-L/R-R)|) vs vehicle [2, 5]: not different from vehicle (p<0.1)
- extension reflex vs vehicle [2, 5]: not different from vehicle (p<0.1)
- average duration in movement in an open field test vs vehicle [2, 6]: no significant difference
- average front paw grip strength vs vehicle [2, 6]: no significant difference
- average gait length vs vehicle [2, 6]: no significant difference
- average gait width vs vehicle [2, 6]: no significant difference
- average latency to fall off a metal wire vs vehicle [2, 6]: no significant difference
- average latency to fall off a rotating cylinder (rotarod) vs vehicle [2, 6]: no significant difference
- average regularity of step distance vs vehicle [2, 6]: no significant difference
- average uniformity of step alternation vs vehicle [2, 6]: a significant difference (p<0.05) between vehicle and treatment at 53 days after treatment initiation
- extension reflex vs vehicle [2, 6]: no significant difference

Reference: patent publication US12065435B2, “Compounds for the treatment of glycogen storage disorders” (HADASIT MEDICAL RESEARCH SERVICES AND DEVELOPMENT LTD., priority 2017, dated 2024)
